25 compounds from patent US5891877A, “Pharmaceutical compounds” (Xenova Limited, priority 1996, dated 1999) can be followed below.

The target in the test is PAI-1 (Homo sapiens, UniProt P05121). Description: PAI-1 inhibition in the S2251 chromogenic substrate assay (PAI functional assay). It counts as biochemical. The conditions noted are these: Table 1, second part; for inhibition at 20 µM / inhibition at 50 µM / inhibition at 100 µM: read-out: INHIBITION OF PAI-1 (degree of inhibition). The protocol:
In this assay, a compound is incubated with PAI-1 prior to addition to the tPA assay system. Inhibition of PAI-1 results in the production of plasmin from plasminogen. […]
Compounds of formula (A) were tested in a PAI chromogenic substrate assay. […] In turn, the plasmin cleaved the chromogenic substrate S2251 (Kabi-Vitrum) producing pNA (p-nitroaniline) which was detected scectrophotometrically at 405 nm.

PAI-1, sequence (P05121 24-402): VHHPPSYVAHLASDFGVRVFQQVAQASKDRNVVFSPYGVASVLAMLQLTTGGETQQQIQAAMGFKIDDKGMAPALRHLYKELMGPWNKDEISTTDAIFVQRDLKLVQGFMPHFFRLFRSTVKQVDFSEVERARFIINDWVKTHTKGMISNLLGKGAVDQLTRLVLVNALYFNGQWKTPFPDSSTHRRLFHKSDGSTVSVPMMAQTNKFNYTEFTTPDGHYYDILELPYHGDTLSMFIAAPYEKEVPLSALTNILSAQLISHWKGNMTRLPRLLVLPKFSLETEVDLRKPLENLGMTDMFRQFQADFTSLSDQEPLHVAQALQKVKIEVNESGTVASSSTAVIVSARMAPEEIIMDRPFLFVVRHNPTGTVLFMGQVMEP

Turning to `CN(C)CCCOc1ccc(/C=c2\[nH]c(=O)/c(=C/c3ccc(-n4ccnc4)cc3)[nH]c2=O)cc1` [Compound 5030, (3Z,6Z)-3-(4-(3-Dimethylaminopropoxy)benzylidene)-6-(4-(1-imidazolyl)benzylidene)-2,5-piperazinedione], the inhibition at 20 µM turned out to be 6%, the inhibition at 50 µM was 7% and the inhibition at 100 µM came out at 20%.
On to `CN(C)CC(O)COc1ccc(/C=c2\[nH]c(=O)/c(=C/c3ccccc3)[nH]c2=O)cc1` (stereo not drawn) [Compound 5032, (3Z,6Z)-6-Benzylidene-3-(4-(3-dimethylamino-2-hydroxypropoxy)benzylidene)-2,5-piperazinedione], for which the inhibition at 20 µM was 63%, the inhibition at 50 µM turned out to be 62% and the inhibition at 100 µM amounted to 65%.
On to `O=c1[nH]/c(=C\c2ccc(OCC(O)CN3CCOCC3)cc2)c(=O)[nH]/c1=C\c1ccccc1` (stereo not drawn) [Compound 5040, (3Z,6Z)-6-Benzylidene-3-(4-(2-hydroxy-3-morpholinopropoxy)benzylidene)-2,5-piperazinedione], for which the inhibition at 20 µM came to 0%, the inhibition at 50 µM was found to be 1% and the inhibition at 100 µM was determined as 0%.
As to `CN(C)CCCOc1ccc(/C=c2\[nH]c(=O)/c(=C/c3ccco3)[nH]c2=O)cc1` [Compound 5041, (3Z,6Z)-6-(4-(3-Dimethylaminopropoxy)benzylidene)-3-furfurylidene-2,5-piperazinedione], the inhibition at 20 µM is 0%, the inhibition at 50 µM is 0% and the inhibition at 100 µM was determined as 1%.
Regarding `CN(C)CCCOc1ccc(/C=c2\[nH]c(=O)/c(=C/c3ccsc3)[nH]c2=O)cc1` [Compound 5042, (3Z,6Z)-6-(4-(3-Dimethylaminopropoxy)benzylidene)-3-(3-Thenylidene)-2,5-piperazinedione], the inhibition at 20 µM worked out at 42%, the inhibition at 50 µM came to 64% and the inhibition at 100 µM is 77%.
`O=c1[nH]/c(=C\c2ccc(OCC(O)CN3CCN(CCO)CC3)cc2)c(=O)[nH]/c1=C\c1ccccc1` (stereo not drawn) [Compound 5043, (3Z,6Z)-6-Benzylidene-3-(4-(2-hydroxy-3-(4-(2-hydroxyethyl)-1-piperazinyl)propoxy)benzylidene)-2,5-piperazinedione]: the inhibition at 20 µM stood at 1%, the inhibition at 50 µM turned out to be 15% and the inhibition at 100 µM was found to be 21%.
The corresponding values for `CC(=O)Nc1ccc(/C=c2\[nH]c(=O)/c(=C/c3ccc(OCCCN(C)C)cc3)[nH]c2=O)cc1` [Compound 5048] are 11%, 19% and 55%.
`CN(C)CCCOc1ccc(/C=c2\[nH]c(=O)/c(=C/c3ccoc3)[nH]c2=O)cc1` [Compound 5052, (3Z,6Z)-6-(4-(3-Dimethylaminopropoxy)benzylidene)-3-(3-Furylmethylene)-2,5-piperazinedione]: the inhibition at 20 µM is 86%, the inhibition at 50 µM was found to be 76% and the inhibition at 100 µM worked out at 77%.
The corresponding values for `O=c1[nH]/c(=C\c2ccc(OCCN3CCCC3)cc2)c(=O)[nH]/c1=C\c1ccccc1` [Compound 5053, (3Z,6Z)-6-Benzylidene-3-(4-(2-(1-pyrrolidinyl)ethoxy)benzylidene)2,5-piperazinedione] are 56%, 64% and 68%.
As for `O=c1[nH]/c(=C\c2ccc(OCCN3CCOCC3)cc2)c(=O)[nH]/c1=C\c1ccccc1` [Compound 5054, (3Z,6Z)-6-Benzylidene-3-(4-(2-morpholinoethoxy)benzylidene)-2,5-piperazinedione], the inhibition at 20 µM turned out to be 48%, the inhibition at 50 µM stood at 57% and the inhibition at 100 µM is 5%.
The corresponding values for `O=c1[nH]/c(=C\c2ccc(OCCn3ccnc3)cc2)c(=O)[nH]/c1=C\c1ccccc1` [Compound 5055, (3Z,6Z)-6-Benzylidene-3-(4-(2-(1-imidazolyl)ethoxy)benzylidene)2,5-piperazinedione] are 70%, 69% and 69%.
The corresponding values for `O=c1[nH]/c(=C\c2ccc(OCC(O)Cn3ccnc3)cc2)c(=O)[nH]/c1=C\c1ccccc1` (stereo not drawn) [Compound 5057, (3Z,6Z)-6-Benzylidene-3-(4-(2-hydroxy-3-(1-imidazolyl)propoxy)benzylidene)-2,5-piperazinedione] are 37%, 29% and 44%.
The corresponding values for `CN(C)CC(=O)NCc1ccc(/C=c2\[nH]c(=O)/c(=C/c3ccccc3)[nH]c2=O)cc1` [Compound 5061, (3Z,6Z)-6-Benzylidene-3-(4-dimethylaminoacetamidomethylbenzylidene)-2,5-piperazinedione] are 60%, 48% and 43%.
Take `CN(C)CCOc1ccc(/C=c2\[nH]c(=O)/c(=C/c3ccoc3)[nH]c2=O)cc1` [Compound 5062, (3Z,6Z)-6-(4-(2-Dimethylaminoethoxy)benzylidene)-3-(3-furylmethylene)-2,5-piperazinedione]: the inhibition at 20 µM was found to be 87%, the inhibition at 50 µM stood at 81% and the inhibition at 100 µM came out at 78%.
For `CN(C)CCOCc1ccc(/C=c2\[nH]c(=O)/c(=C/c3ccsc3)[nH]c2=O)cc1` [Compound 5069, (3Z,6Z)-6-(4-(2-Dimethylaminoethoxymethyl)benzylidene)-3-(3-thenylidene)-2,5-piperazinedione], in that order: 75%, 71% and 70%.
Turning to `CN(C)CCOc1ccc(/C=c2\[nH]c(=O)/c(=C/c3ccsc3)[nH]c2=O)cc1` [Compound 5071, (3Z,6Z)-6-(4-(2-Dimethylaminoethoxy)benzylidene)-3-(3-thenylidene)-2,5-piperazinedione], the inhibition at 20 µM is 73%, the inhibition at 50 µM worked out at 82% and the inhibition at 100 µM is 80%.
Take `CSc1ccc(/C=c2\[nH]c(=O)/c(=C/c3ccc(OCCN(C)C)cc3)[nH]c2=O)s1` [Compound 5072, (3Z,6Z)-6-(4-(2-Dimethylaminoethoxy)benzylidene)-3-(5-methylthio-2-thenylidene)-2,5-piperazinedione]: the inhibition at 20 µM turned out to be 61%, the inhibition at 50 µM came out at 61% and the inhibition at 100 µM turned out to be 60%.
Consider `CN(C)CCSCc1ccc(/C=c2\[nH]c(=O)/c(=C/c3ccoc3)[nH]c2=O)cc1` [Compound 5073, (3Z,6Z)-6-(4-(2-Dimethylaminoethylthiomethyl)benzylidene)-3-(3-furylmethylene)-2,5-piperazinedione], for which the inhibition at 20 µM amounted to 14%, the inhibition at 50 µM was 70% and the inhibition at 100 µM was 63%.
On to `CN(C)CC(=O)NCc1ccc(/C=c2\[nH]c(=O)/c(=C/c3ccsc3)[nH]c2=O)cc1` [Compound 5074, (3Z,6Z)-6-(4-Dimethylaminoacetamidomethylbenzylidene)-3-(3-thenylidene)-2,5-piperazinedione], for which the inhibition at 20 µM amounted to 26%, the inhibition at 50 µM is 57% and the inhibition at 100 µM amounted to 47%.
The corresponding values for `O=c1[nH]/c(=C\c2cc(Cl)sc2Cl)c(=O)[nH]/c1=C\c1ccccc1` [Compound 5075, (3Z,6Z)-3-(2,5-Dichloro-3-thenylidene)-6-benzylidene-2,5-piperazinedione] are 52%, 88% and 88%.
For `CN(C)CCOCc1ccc(/C=c2\[nH]c(=O)/c(=C/c3ccoc3)[nH]c2=O)cc1` [Compound 5077, (3Z,6Z)-6-(4-(2-Dimethylaminoethoxymethyl)benzylidene)-3-(3-furylmethylene)-2,5-piperazinedione], in that order: 42%, 46% and 34%.
The corresponding values for `CN(C)CCSCc1ccc(/C=c2\[nH]c(=O)/c(=C/c3ccsc3)[nH]c2=O)cc1` [Compound 5078, (3Z,6Z)-6-(4-(2-Dimethylaminoethylthiomethyl)benzylidene)-3-(3-thenylidene)-2,5-piperazinedione] are 11%, 67% and 60%.
In the case of `CN(C)CC(=O)NCc1ccc(/C=c2\[nH]c(=O)/c(=C/c3ccccc3Br)[nH]c2=O)cc1` [Compound 5079, (3Z,6Z)-3-(2-Bromobenzylidene)-6-(4-dimethylaminoacetamidomethylbenzylidene)-2,5-piperazinedione], the inhibition at 20 µM came to 14%, the inhibition at 50 µM came out at 58% and the inhibition at 100 µM came to 44%.
For `CN(C)CC(=O)NCc1ccc(/C=c2\[nH]c(=O)/c(=C/c3ccoc3)[nH]c2=O)cc1` [Compound 5081, (3Z,6Z)-6-(4-Dimethylaminoacetamidomethylbenzylidene)-3-(3-furylmethylene)-2,5-piperazinedione], in that order: 50%, 34% and 25%.
As for `CN(C)CCCOc1ccc(/C=c2\[nH]c(=O)/c(=C/c3ccc4ccccc4c3)[nH]c2=O)cc1` [Compound 5188, (3Z,6Z)-6-(4-(3-Dimethylaminopropoxy)benzylidene)-3-(2-Naphthylmethylene)-2,5-piperazinedione], the inhibition at 20 µM was 94% and the inhibition at 100 µM worked out at 90%. Moreover, the IC50 (PAI-1, S2251 assay) is 3.5 µM.

For orientation: inhibition means the relative decrease from the control value, in per cent. Usually IC50 stands for the concentration needed to halve the response being measured.
